In the NIST ThermoML archive (doi:10.1016/j.jct.2014.04.014):
Numbers after ± are expanded uncertainties. Each block holds one compound with its values, some of them ahead of it.

Assay: wn = mass fraction of the nth substance listed
Conditions: 273.15 K, 102.5 kPa, Liquid; for viscosity: Capillary tube (Ostwald / Ubbelohde) method; for mass density: Pycnometric method

viscosity (w1 = 0.2625): 2.16 ± 0.05 mPa·s
mass density (w1 = 0.2625): 1201 ± 1 kg/m3
Structure (SMILES): [Cl-].[Na+] [sodium chloride] + O

Structure (SMILES): O=[PH2][O-].[Na+] [sodium phosphinate] + O
viscosity (w1 = 0.478): 73.88 ± 1.9 mPa·s
mass density (w1 = 0.478): 1384 ± 1 kg/m3

viscosity (w1 = 0.666): 135.4 ± 4.5 mPa·s
mass density (w1 = 0.666): 1943 ± 3 kg/m3
Structure (SMILES): [Cl-].[Cl-].[Zn+2] [zinc chloride] + O

Structure (SMILES): O=[PH2][O-].O=[PH2][O-].[Zn+2] [zinc(II) phosphinate] + O
viscosity (w1 = 0.1379): 2.95 ± 0.06 mPa·s
mass density (w1 = 0.1379): 1069 ± 1 kg/m3
